PMC11124362, “Metabolism, Disposition, Excretion, and Potential Transporter Inhibition of 7–16, an Improving 5-HT2A Receptor Antagonist and Inverse Agonist for Parkinson’s Disease” (Molecules, 2024)

Legend:
[1] = Excretion and metabolite identification in urine and feces of intact rats; assay type: in vivo, Sprague-Dawley rats; conditions: for Dose% Feces, female / Dose% Urine, female: female rats; for Dose% Feces, female / Dose% Urine, female / Dose% Feces, male / Dose% Urine, male: single oral dose [14C]7–16 3 mg/100 µCi/kg; for Dose% Feces, male / Dose% Urine, male: male rats
Procedure: (§1) In the urine and feces excretion experiment, six rats (3 females and 3 males) were administered a single oral dose of [^14C]7–16 at 3 mg/100 µCi/kg. Urine, feces and cage washing/cleaning solution samples were collected from 0 to 168 h following drug administration at the following time intervals: 0–8, 8–24 h (0–24 h for feces), 24–48, 48–72, 72–96, 96–120, 120–144, and 144–168 h. In the biliary excretion experiment, 8 rats using a bile duct cannula (BDC) (4 females and 4 males) were administered a single oral dose of [^14C]7–16 at 3 mg/100 µCi/kg. Bile, urine, feces, and cage washing solution were collected from before and 0–72 h after oral administration at the following time intervals: 0–4, 4–8 (urine 0–8), 8–24 (feces 0–24), 24–48, and 48–72 h. All samples were collected and refrigerated at −20 °C until determination of the radioactive concentrations by liquid scintillation counter (Perkin Elmer Corporation, Waltham, MA, USA). Urine, feces, and bile samples at each time period were mixed by equal percentages of either volume or weight. After the mixed samples were treated, the radio-profiles and metabolite identification in the bile, urine, and feces samples were carried out by LC-RAM and UPLC-Q Exactive HRMS, and the TRA% of each metabolite in plasma and the percentage of dose (dose%) of each compound in urine, feces, and bile samples were calculated.

[2] = Metabolite identification in dog liver microsomes; assay type: in vitro ADME; conditions: 7–16 10 µM, liver microsomes 1 mg/mL, NADPH, 37 °C, 60 min
Procedure: (§2) In accordance with our previous methods, 7–16 (10 µM) was incubated with mouse, rat, dog, monkey, and human liver microsome proteins (1 mg/mL) in 100 mM sodium phosphate buffer (pH 7.4) containing 10 mM magnesium chloride and 2 mM NADPH at 37 °C for 60 min. All samples were prepared in duplicates. The reactions were terminated by adding three times the volume of ice-cold acetonitrile (600 µL) and stored at −20 °C until analysis. Control samples without NADPH and 0-time point samples were included. As a positive control, testosterone (10 µM), which was metabolized to produce the hydroxylation metabolite, was used as a substrate to confirm the activity of the incubation system.
(§3) After pre-treatments, the samples were analyzed by an Acquity UPLC system coupled with a diode array detector (Waters Corporation, Milford, MA, USA) and Q Exactive HRMS (Thermo Electron Corporation, Waltham, MA, USA) (UPLC–UV-Q Exactive HRMS). Samples were separated on an Agilent XDB C18 column (150 × 2.1 mm i.d. 3.5 μm, Agilent Corporation, Santa Clara, CA, USA) at 40 °C by gradient elution with water and acetonitrile containing 0.1% formic acid. The flow rate was 0.40 mL/min. The ultraviolet (UV) detection wavelength was 286 nm. Q Exactive HRMS were operated at positive ion mode (3.5 kV) using a heating electrospray ionization source. Mass calibration was required to be performed before conducting experiments so as to achieve the best mass accuracy and mass calibration should be performed every five days. The metabolites were detected by full MS/dd-MS^2 analysis from m/z 100 to m/z 1000. The resolution of the first-class scan and second-class scan was 70,000 and 17,500, respectively. Thermo Compound Discover software was used to identify expected and unknown metabolites, and we finally proposed the 7–16 metabolic pathways based on the deduced metabolites and relevant drug biotransformation knowledge.

[3] = Metabolite identification in rat plasma after oral [14C]7–16; assay type: in vivo, Sprague-Dawley rats; conditions: single oral dose [14C]7–16 3 mg/100 µCi/kg, pooled plasma 0.25-24 h; for TRA% Plasma, female: female rats; for TRA% Plasma, male: male rats
Procedure: The rats received a single oral dose of [^14C]7–16 at 3 mg/100 µCi/kg (3 females and 3 males for each time point). At 0.25, 1, 6, and 24 h after administration, about 0.3 mL of blood was collected into a collection vessel containing K2-EDTA anticoagulant by cardiac puncture, and the plasma samples were acquired after centrifugation at 8000 rpm for 10 min at 4 °C. All samples were stored at −20 °C until analysis. The rat plasma samples at each time point were mixed in accordance with the area under the concentration curve contribution at corresponding time intervals. After the pooled plasma samples were pre-treated, the radio-profiles of plasma samples were detected using Shimadzu LC coupled with a radioactivity monitor (LC-RAM, Scintillation and Luminescence Counter Technology, Perkin Elmer Corporation, Waltham, MA, USA), and the metabolites were identified by UPLC-QE HRMS (Thermo Electron Corporation, Waltham, MA, USA). The percentage of each metabolite based on the total radiation intensity (TRA%) in plasma samples was calculated. The structures of metabolites were identified by the same method used for metabolite identification in the liver microsomes of different species.

[4] = Metabolite identification in rat liver microsomes; assay type: in vitro ADME; conditions: 7–16 10 µM, liver microsomes 1 mg/mL, NADPH, 37 °C, 60 min
Procedure: as §2, §3

[5] = Metabolite identification in monkey liver microsomes; assay type: in vitro ADME; conditions: 7–16 10 µM, liver microsomes 1 mg/mL, NADPH, 37 °C, 60 min
Procedure: as §2, §3

[6] = Metabolite identification in human liver microsomes; assay type: in vitro ADME; conditions: 7–16 10 µM, liver microsomes 1 mg/mL, NADPH, 37 °C, 60 min
Procedure: as §2, §3

[7] = Metabolite identification in mouse liver microsomes; assay type: in vitro ADME; conditions: 7–16 10 µM, liver microsomes 1 mg/mL, NADPH, 37 °C, 60 min
Procedure: as §2, §3

[8] = Excretion and metabolite identification in bile duct cannulated (BDC) rats; assay type: in vivo, Sprague-Dawley rats; conditions: single oral dose [14C]7–16 3 mg/100 µCi/kg; for Dose% Bile, female: female BDC rats; for Dose% Bile, male: male BDC rats
Procedure: as §1

Row | Compound | Dose% Feces, female [1] [%] | Dose% Urine, female [1] [%] | Dose% Feces, male [1] [%] | Dose% Urine, male [1] [%] | Relative Abundance, UV Area% Dog [2] [%] | TRA% Plasma, female [3] [%] | TRA% Plasma, male [3] [%] | Relative Abundance, UV Area% Rat [4] [%] | Relative Abundance, UV Area% Monkey [5] [%] | Relative Abundance, UV Area% Human [6] [%] | Relative Abundance, UV Area% Mouse [7] [%] | Dose% Bile, female [8] [%] | Dose% Bile, male [8] [%] | recovery of radioactivity within the first 24 h, percent of dose ([1]; intact rats, first 24 h post-administration) [%]
1 | CN1CCC(N(Cc2ccc(F)cn2)C(=O)NCc2ccc(O)cc2)CC1 [Compound M372] | 4.97 | 4.34 | 5.42 | 5.75 | 1.73 | 1.11 | 2.50 | 1.10 | 2.52 | 0.60 | 0.61 | 0.41 | 0.83 | –
2 | O=C(NCc1ccc(OCC(F)(F)F)cc1)N(Cc1ccc(F)cn1)C1CCNCC1 [Compound M440] | 21.1 | 2.66 | 24.2 | 5.77 | 0.47 | 1.40 | 3.70 | 1.29 | 1.73 | 0.78 | 0.39 | 2.71 | 3.83 | –
3 | CN1CCC(N(Cc2ccc(F)cn2)C(=O)N[14CH2]c2ccc(OCC(F)(F)F)cc2)CC1 [[^14C]7–16] | 16.8 | 23.6 | 5.29 | 9.79 | – | 81.9 | 57.3 | – | – | – | – | 0.76 | 0.53 | 76.8
